# Where “and” joins values, the source holds several entries; their conditions need not be identical. Equal values may be shown once.
# Legend:
# [1] = Treatment-emergent adverse events; format: in vivo, human
# Vital signs = format: in vivo, human; details: single treatment (LDX alone Arm A; VXR alone Arm B)
# [2] = test system: cytochrome P450 (CYP) isoenzyme; details: any CYP isoenzyme tested to date; cited from earlier work
# [3] = Plasma pharmacokinetics of LDX, d-amphetamine, VEN and ODV; details: mean (SD), day 15
# Bioequivalence test = details: for AUCτ test/reference ratio [90 % CI] / Cmax test/reference ratio [90 % CI]: LDX + VXR Day 30 vs VXR alone Day 15, Treatment Arm B; for AUC / Cmax: human, in vivo
# CYP2D6 [4] = details: cited from earlier work
# CYP2D6 [5] = experiment: In vivo CYP2D6 interaction, VXR as CYP2D6 substrate coadministered with LDX; details: inferred from VEN increase and ODV decrease with LDX + VXR coadministration
# [6] = treatment arms combined, LDX alone n = 40 and VXR alone n = 37 during dose titration periods, LDX + VXR n = 67
smiles,measurement,setting,value
"CS(=O)(=O)O.CS(=O)(=O)O.C[C@@H](Cc1ccccc1)NC(=O)[C@@H](N)CCCCN [LDX, Lisdexamfetamine dimesylate]",Time to resolution of serious AE (presyncope),"[1]; one participant, LDX 30 mg/day",≤ 10 min
same,Any TEAE,[1]; [6],33 (82.5) n (%)
same,TEAE Anorexia,[1]; [6],12 (30.0) n (%)
same,TEAE Anxiety,[1]; [6],5 (12.5) n (%)
same,TEAE Back pain,[1]; [6],2 (5.0) n (%)
same,TEAE Chest pain,[1]; [6],3 (7.5) n (%)
same,TEAE Constipation,[1]; [6],3 (7.5) n (%)
same,TEAE Diarrhoea,[1]; [6],2 (5.0) n (%)
same,TEAE Dizziness,[1]; [6],3 (7.5) n (%)
same,TEAE Dry mouth,[1]; [6],10 (25.0) n (%)
same,TEAE Dyspnoea,[1]; [6],2 (5.0) n (%)
same,TEAE Epistaxis,[1]; [6],0 (0.0) n (%)
same,TEAE Euphoric mood,[1]; [6],3 (7.5) n (%)
same,TEAE Headache,[1]; [6],7 (17.5) n (%)
same,TEAE Insomnia,[1]; [6],7 (17.5) n (%)
same,TEAE Libido decreased,[1]; [6],0 (0.0) n (%)
same,TEAE Nausea,[1]; [6],6 (15.0) n (%)
same,TEAE Palpitations,[1]; [6],8 (20.0) n (%)
same,TEAE Somnolence,[1]; [6],7 (17.5) n (%)
same,TEAE Stomach discomfort,[1]; [6],2 (5.0) n (%)
same,TEAE Testicular pain,[1]; [6],0 (0.0) n (%)
same,TEAE Urinary hesitation,[1]; [6],0 (0.0) n (%)
same,TEAE Vision blurred,[1]; [6],2 (5.0) n (%)
same,Maximum mean increase in DBP,Vital signs,~6 mmHg
same,Maximum mean increase in SBP,Vital signs,~7 mmHg
same,Maximum mean increase in pulse rate,Vital signs,approximately 13 beats/min
same,Inhibition of CYP isoenzymes,[2],does not inhibit
same,AUCτ,[3]; after LDX alone 70 mg/day,65.5 (44.0) ng·h/mL
same,Cmax,[3]; after LDX alone 70 mg/day,49.1 (32.25) ng/mL
same,tmax,[3]; after LDX alone 70 mg/day,1.1 (0.3) h
same,t½,[3]; after LDX alone 70 mg/day,0.4 (0.1) h
"CN(C)CC(c1ccc(O)cc1)C1(O)CCCCC1 (centres unmarked) [ODV, O-desmethylvenlafaxine]",AUCτ test/reference ratio [90 % CI],Bioequivalence test,"0.83 [0.71, 0.96] and 0.826 [0.713, 0.956]"
same,Cmax test/reference ratio [90 % CI],Bioequivalence test,"0.907 [0.777, 1.058]"
same,AUC,Bioequivalence test; 225 mg/day,8080 ng·h/mL
same,Cmax,Bioequivalence test; 225 mg/day,392 ng/mL
"COc1ccc(C(CN(C)C)C2(O)CCCCC2)cc1 (centres unmarked) [VEN, Venlafaxine]",AUCτ test/reference ratio [90 % CI],Bioequivalence test,"1.13 [0.88, 1.45] and 1.129 [0.88, 1.45]"
same,Cmax test/reference ratio [90 % CI],Bioequivalence test,"1.10 [0.88, 1.38] and 1.103 [0.881, 1.38]"
same,Geometric least squares mean Cmax,"Bioequivalence test; VXR alone, Day 15, Treatment Arm B",180.7 ng/mL
same,AUC,Bioequivalence test; 225 mg/day,2410 ng·h/mL
same,tmax,[3]; after VXR alone 225 mg/day,6.4 (0.8) h
"C[C@H](N)Cc1ccccc1 [d-Amphetamine, dextroamphetamine]",Inhibition of CYP2D6 activity,CYP2D6 [4],weakly inhibits
same,"Inhibition of CYP2D6 activity, from current pharmacokinetic findings",CYP2D6 [5],weak inhibitor
same,AUC,Bioequivalence test; 70 mg/day,1110 ng·h/mL
same,Cmax,Bioequivalence test; 70 mg/day,85.9 ng/mL

# Source: article PMC3608883 (Clinical Drug Investigation, 2013)
